These results are taken from article PMC11459959, “Discovery of new acetamide derivatives of 5-indole-1,3,4-oxadiazol-2-thiol as inhibitors of HIV-1 Tat-mediated viral transcription” (Antimicrobial Agents and Chemotherapy, 2024).

Holding throughout (type): cell-based
The subject of experiment [1] is HIV-1NL4-3. The experiment in a line: HIV-1 replication in PBMCs (p24 […]). As to conditions: Table S1, WT virus, 10-fold serial dilution. As to the method:
The p24 level from the cell supernatant was subsequently determined using a p24 […] kit (PerkinElmer). In parallel, the cell viability was determined without viral infection because of the viral cytopathic effect. […] In parallel, cell viability was determined. The data (A and B) are presented as the mean ± SD (n = 3). (C) PBMCs (4 × 10^5) infected with HIV-AD8 at an MOI of 0.1 were treated with 1.5 µM of the compounds or ARVs for 3 days. The levels of p24 and cell viability were subsequently determined. (D) J1.1 cells were cultured with the compounds ([…]) under 50 ng/mL phorbol myristate acetate (PMA) treatment for 2 days. The level of p24 was subsequently determined. (E) J-Lat 6.3 cells were treated with the compounds (1.5 µM) under 1 µg/mL of PMA for 2 days. The GFP-positive cell population was analyzed using flow cytometry. The data are represented as a value relative to the DMSO-treated vehicle (D) and a percent of the GFP^+ cell population (E) as mean ± SD (n = 3).
The inhibitory effects of the compounds on viral replication were determined with some minor modifications, as previously described ([12], [62]). […] PBMCs (4 × 10^5) pre-activated with PHA-M for 3 days were washed with fresh media to remove excess PHA-M and subsequently infected with HIV-1NL4-3 or HIV-1AD8 or PIs-resistant HIV-1 strains as A3.01 infection. After infection, the infectious media were replaced with fresh media supplemented with international 10 units (IU)/mL of IL-2 and the indicated compounds. At 72 h after infection, the inhibitory effect of the compounds on viral replication was determined by measuring the p24 amount, an HIV capsid protein, using an HIV-1 p24 […] kit (PerkinElmer, Waltham, MA, USA). Cell viability was determined as described above. The inhibitory effects on provirus reversing in J1.1 and J-Lat 6.3 cells were determined as previously described ([12], [41], [63]) with some minor modifications. Briefly, 5 × 10^4 persistently HIV-1-infected J1.1 or J-Lat 6.3 cells were cultured in either the presence or absence of the compounds at a final concentration of 1.5 µM and treated with PMA (50 ng/mL for J1.1 cells, 1 µg/mL for J-Lat 6.3 cells). Two days after treatment, the levels of viral production were determined using p24 […] for J1.1 cells and flow cytometry analysis for GFP-expressing J-Lat 6.3 cells.

Experiment [2] concerns PI-resistant HIV-1 strain 11800. The experiment in a line: microbe, parasite or virus in culture. The source says: (§1) The Tzm-bl-derived dual Tat reporter; TZM-bl/Tat/Rluc (bl-DTR) cells were established from TZM-bl cells using two Dox-inducible lentiviral expression cassettes cloned with Flag-tagged Tat86 and the R-Luc gene, as described in our previous study ([11]). TZM-bl, A3.01, J1.1, and J-Lat 6.3 cells as well as the HIV-1 molecular clone pNL4-3, pNL(AD8), ARV-resistant HIV-1 strains, and HIV-1NL43-IRES-eGFP (pBR43IeG-nef^+, gifted by Dr. Frank Kirchhoff) ([52]) were provided by the National Institute of Health HIV Reagent Program (NIH, Bethesda, MD, USA). HeLa (CCL-2) and 293T (CRL-3216) cell lines were purchased from the American Type Culture Collection (ATCC, Manassas, VA, USA). The bl-DTR, TZM-bl, HeLa, and 293T cells were cultured in Dulbecco’s modified Eagle’s medium supplemented with 1% penicillin–streptomycin and 10% (vol/vol) heat-inactivated fetal bovine serum (all from Gibco-BRL, Gaithersburg, MD, USA), and 1 µg/mL of puromycin and 200 µg/mL of zeocin were additionally supplemented for the bl-DTR cells. PBMCs were purchased from AllCells (Alameda, CA, USA) and cultured as previously described ([12]). The information on ARV-resistant HIV-1 strains was described in previous reports as follows: NNRTI-resistant 12241 and 12243 ([53]); NRTI-resistant 7396, 7406, and 7407 ([54]); INSTI-resistant 11847 and 11849 ([55], [56]); and PI-resistant 11800 and 11803 ([57]). Each molecular HIV-1 clone was transfected to 293T cells, as previously described ([58]), to obtain infectious HIV-1 particles. Virus-containing cell culture supernatants were collected 3 days after transfection, and filtered through a 0.45-µm membrane filter (Millipore Sigma, Burlington, MA, USA) to remove cell debris. The viral titration was performed as described previously ([59]) with some minor modifications. In brief, 1 × 10^4 TZM-bl cells seeded in 96-well plates were infected with 200 µL of virus-containing medium diluted serially twofold. The incubation was for 2 days and the experiment was performed in triplicate; the infection time minimized the virus spread ([59]). The titration of the infectious viral particles was performed with a ß-Gal staining assay using the ßeta-Galactosidase Staining Kit (Mirus Bio, Madison, WI, USA) following the manufacturer’s protocols. In brief, the infected cells were washed with phosphate-buffered saline (PBS) and fixed using a Cell Fixative Working solution. The cells were washed with PBS and stained using the Cell Staining Working Solution containing X-gal. The infected blue-colored cells were counted under a microscope (100× magnification). The infectious virus titer was determined as a mean value of blue-colored cells count × dilution factor and used for determining the multiplicity of infection (MOI) in each infection experiment.
(§2) The inhibitory effects of the compounds on viral replication were determined with some minor modifications, as previously described ([12], [62]). […] PBMCs (4 × 10^5) pre-activated with PHA-M for 3 days were washed with fresh media to remove excess PHA-M and subsequently infected with HIV-1NL4-3 or HIV-1AD8 or PIs-resistant HIV-1 strains as A3.01 infection. After infection, the infectious media were replaced with fresh media supplemented with international 10 units (IU)/mL of IL-2 and the indicated compounds. At 72 h after infection, the inhibitory effect of the compounds on viral replication was determined by measuring the p24 amount, an HIV capsid protein, using an HIV-1 p24 […] kit (PerkinElmer, Waltham, MA, USA). Cell viability was determined as described above. The inhibitory effects on provirus reversing in J1.1 and J-Lat 6.3 cells were determined as previously described ([12], [41], [63]) with some minor modifications.

The subject of experiment [3] is PI-resistant HIV-1 strain 11803. The experiment in a line: microbe, parasite or virus in culture.
From the text: as §1, §2

Experiment [4] concerns HIV-1NL4-3. The experiment in a line: HIV-1 infectivity in TZM-bl cells (F-Luc). As to conditions: Human immunodeficiency virus 1, TZM-bl, 48 h, Table S1, WT virus, TZM-bl, fivefold serial dilutions, MOI 1, 48 h; read-out: EC50.
Method: The TZM-bl cells (also referred to as JC53BL-13) expressing human CD4, CXCR4, and CCR5 carrying the F-Luc and lacZ genes downstream of the HIV-1 LTR promoter ([60]) were used to determine the inhibitory effect of the compounds on HIV-1 infection, as previously described ([11], [12], [61]). In brief, 1 × 10^4 cells were cultured in 96-well plates for 24 h and subsequently treated with compounds at the indicated concentrations. Without replacement of the culture medium, the cells were subsequently infected with the HIV-1NL4-3 wild-type or ARV-resistant HIV-1 strains at an MOI of 1 to determine the exact inhibitory effect of compounds on a single-round infection. After 48 h, the inhibitory effect of the compounds was determined using a Bright Glo luciferase assay kit (Promega) or β-Galactosidase Enzyme Assay kit (Promega). The infectivity data were presented as a percentage relative to the dimethyl sulfoxide (DMSO) control (vehicle). Cell viability was determined using the resazurin-based PrestoBlue Cell Viability Reagent (Thermo Fisher Scientific, Waltham, MA, USA) following the manufacturer’s instructions.
Experiment [5] concerns NRTI-resistant HIV-1 strain 7396. The experiment in a line: microbe, parasite or virus in culture. Particulars: Human immunodeficiency virus 1, TZM-bl. As to the method: (§3) Fig 7 (A–C) TZM-bl cells (1 × 10^4 cells/well) cultured in a 96-well plate were treated with fivefold serial dilutions of the indicated compound or ARV for 1 h before infection with the HIV-1NL4-3 or ARV-resistant HIV-1 strains at an MOI of 1, respectively. At 48 h after infection, the EC50 values were determined using an F-Luc activity. The symbols represent the fold-change values of EC50 against each mutant virus relative to the wild-type (WT) virus. (D) PBMCs (5 × 10^4 cells/well) were infected with the HIV-1NL4-3 and PIs-resistant HIV-1 strain at an MOI of 0.1, respectively. Subsequently, the PBMCs were treated with 10-fold serial dilutions of the indicated compounds or PI. At 3 days after infection, the EC50 values on the viral replication were determined using a p24 […] assay kit. (E) The inhibitory kinetics for the WT and ARV-resistant viruses. TZM-bl cells infected with WT or ARV-resistant viruses were cultured upon fivefold serial dilutions of each compound for 2 days and the infectivity was determined using an F-Luc activity.
as §1

Experiment [6] concerns NRTI-resistant HIV-1 strain 7406. The experiment in a line: microbe, parasite or virus in culture. As to conditions: Human immunodeficiency virus 1, TZM-bl. As to the method:
as §3, §1

In experiment [7] the test system is NRTI-resistant HIV-1 strain 7407. The experiment in a line: microbe, parasite or virus in culture. As to conditions: Human immunodeficiency virus 1, TZM-bl. As to the method:
as §3, §1

In experiment [8] the test system is HIV-1NL4-3. The experiment in a line: Time-of-addition assay in TZM-bl cells. As to conditions: HIV-1NL4-3 MOI 1, 9 and 13 1.5 μM, T-20 1 µM, triptolide 5 nM, ARVs 1 µM, F-Luc at 54 h. As to the method:
Fig 5 (A) Time-of-addition assay. […] Subsequently, the cells were treated with the compounds at the indicated time points (0, 1, 2, 4, 6, 8, 10, 12, 24, 30, 36, 42, and 48 h) after HIV-1 infection. The final concentrations of compounds are described in Materials and Methods. Viral activity according to the timing of drug addition was measured as F-Luc activity at 54 h after infection. The relative activities are represented as the mean ± SD (n = 3) compared with the activity observed 54 h post-infection. The relative time frames associated with each HIV-1 infection step are defined based on the time frame of susceptibility to the drug that blocks that particular infection step. […] At 16 h after infection, the viral reverse transcription (RT) product (viral cDNA) level was determined by quantitative real-time PCR (RT-qPCR) using gag and 18S rRNA primer sets and represented as the mean ± SD (n = 3) normalized against the amount of the 18S rRNA compared with the DMSO control. **P < 0.01 compared with the vehicle (DMSO). (C) An in vitro integrase (IN) assay was performed with 10 µM of the indicated compounds following the manufacturer’s protocol. **P < 0.01 compared with vehicle (DMSO). (D) A3.01 cells were infected with HIV-1 upon treatment with the indicated compounds (5 µM) and ARVs (EFV and DTG) as the experimental controls. At 40 h after infection, cellular chromosomal DNA was purified, and the integrated proviral DNA was detected through nested Alu-PCR amplification.
A time-of-addition assay was performed as previously described ([25]) with minor modifications. […] Reference drug and test compounds were subsequently added at the indicated time (0, 1, 2, 4, 6, 8, 10, 12, 24, 30, 36, 42, and 48 h after infection). Final concentrations were as follows: compounds 9 and 13 (1.5 μM), T-20 (1 µM), Triptolide (5 nM), and ARVs (AZT, EFV, DTG, RAL) (1 µM). The viral activity according to the timing of drug addition was measured using a Bright Glo luciferase assay kit (Promega). Virus activity curves present a % activity relative to the activity observed at 54 h after infection, and the data are presented as the mean ± standard deviation (SD) (n = 3). The relative time frame associated with each HIV-1 infection step was defined based on the sensitivity to each drug that blocks a particular infection step.

The mark [9] stands for this setting: Human immunodeficiency virus 1, PBMC.
Setting [10] is: PI-resistant 11800, PBMCs, 10-fold serial dilution, read-out: EC50.
[11] abbreviates: PI-resistant 11803, PBMCs, 10-fold serial dilution, read-out: EC50.

Molecules are shown by their SMILES. Like-named read-outs stand apart in the source and are kept apart here.

As usually defined, the EC50 is the concentration that produces a half-maximal response. On to `CC(C)CN(C[C@@H](O)[C@H](Cc1ccccc1)NC(=O)O[C@H]1CO[C@H]2OCC[C@H]21)S(=O)(=O)c1ccc(N)cc1` [DRV, darunavir], for which the EC50 in the experiment with HIV-1NL4-3 [1] (setting [9]) was below 1 nM; in experiment [2] (setting [9]) it was 150 ± 20 nM; in experiment [3] (setting [9]) it was 30 ± 10 nM.

With `CC(C)(C)NC(=O)[C@@H]1C[C@@H]2CCCC[C@@H]2CN1C[C@@H](O)[C@H](Cc1ccccc1)NC(=O)[C@H](CC(N)=O)NC(=O)c1ccc2ccccc2n1` [SQV, sequinavir], the EC50 with HIV-1NL4-3 [1] (read-out: EC50) was found to be 8.24 ± 0.15 nM; in experiment [2] (setting [10]), 10 nM; in experiment [3] (setting [11]), 1240 ± 130 nM.

In the case of `Cc1c(O)cccc1C(=O)N[C@@H](CSc1ccccc1)[C@H](O)CN1C[C@H]2CCCC[C@H]2C[C@H]1C(=O)NC(C)(C)C` [NFV, nelfiravir], the EC50 with HIV-1NL4-3 [1] (read-out: EC50) is below 1 nM; in experiment [2] (setting [10]) it was 420 ± 20 nM; in experiment [3] (setting [11]), 1640 ± 220 nM.

As for `Cc1cn([C@H]2C[C@H](N=[N+]=[N-])[C@@H](CO)O2)c(=O)[nH]c1=O` [AZT, zidovudine], the half-maximal effective concentration (EC50) is 110 ± 10 nM with HIV-1NL4-3 [4], 16400 ± 1370 nM in experiment [5], 73120 ± 430 nM in experiment [6] and above 100000 nM in experiment [7]. Moreover, the “time of administration after infection at which effectiveness began to decrease / was lost” value in the experiment on HIV-1NL4-3 [8] was 6 h.
